Data set [1] has as its system U-251. Description: Anticancer activity against human U-251 cells assessed as cell growth inhibition measured after 48 hrs by sulforhodamine B assay. In kind it is functional.
For data set [2], the system named is MCF7. Briefly: Anticancer activity against human MCF7 cells assessed as cell growth inhibition measured after 48 hrs by sulforhodamine B assay. It counts as functional.
For data set [3], the system named is 786-0. Briefly: Anticancer activity against human 786-0 cells assessed as cell growth inhibition measured after 48 hrs by sulforhodamine B assay. It counts as functional.
Data set [4] deals with NCI-H460. Briefly: Anticancer activity against human NCI-H460 cells assessed as cell growth inhibition measured after 48 hrs by sulforhodamine B assay. It counts as functional.
The test system of data set [5] is PC-3. Description: Anticancer activity against human PC-3 cells assessed as cell growth inhibition measured after 48 hrs by sulforhodamine B assay. It counts as functional.
Data set [6] concerns OVCAR-3. Briefly: Anticancer activity against human OVCAR-3 cells assessed as cell growth inhibition measured after 48 hrs by sulforhodamine B assay. In kind it is functional. Particulars: 48 h.
Data set [7] relates to HT-29. Briefly: Anticancer activity against human HT-29 cells assessed as cell growth inhibition measured after 48 hrs by sulforhodamine B assay. It counts as functional.
The subject of data set [8] is K562. Briefly: Anticancer activity against human K562 cells assessed as cell growth inhibition measured after 48 hrs by sulforhodamine B assay. In kind it is functional. Particulars: 48 h.
In data set [9] the test system is HaCaT. Description: Cytotoxicity against human HaCaT cells assessed as cell growth inhibition measured after 48 hrs by sulforhodamine B assay. It counts as cell-based. To be noted: hacat, 48 h.

This passage reports GI50 results from ChEMBL document CHEMBL4673302, “Efficient synthesis and antitumor evaluation of 4-aminomethyl-N-arylpyrazoles: Discovery of potent and selective agents for ovarian cancer” (Bioorg Med Chem, 2021).

For `CCOC(=O)c1nn(-c2ccc(Cl)cc2)c(-c2ccc([N+](=O)[O-])cc2)c1CNC(C)(C)C`, the GI50 in [1] (48 h) worked out at 340 µM; in data set [2] (48 h), 205 µM; in data set [3] (48 h), 51.2 µM; in data set [4] (48 h) it was 52.8 µM; in data set [5] (48 h) it was 304 µM; in data set [6] it was 16.1 µM. Also, the values for the GI50 in [7] (48 h), in data set [8] and in [9] were 40.8 µM, 14.8 µM and 145 µM, respectively.
Consider `CCOC(=O)c1nn(-c2ccc(Cl)cc2)c(-c2ccc(Cl)cc2)c1CNC(C)(C)C` [listing 1 of 2 here], for which the GI50 in data set [1] (48 h) was determined as 6.4 µM; in [2] (48 h), 120 µM; in data set [3] (48 h), 73.7 µM; in data set [4] (48 h), 144 µM; in data set [5] (48 h) it was 196 µM; in [6], 21.6 µM. For the same compound, the GI50 in data set [7] (48 h) worked out at 57.7 µM; in [8] it was 11.2 µM; in data set [9] it was 2.9 µM.
With `CCOC(=O)c1nn(-c2ccc(Cl)cc2)c(-c2ccc(OC)cc2)c1CNC(C)(C)C`, the GI50 in data set [1] (48 h), in data set [2] (48 h), in data set [3] (48 h), in data set [4] (48 h), in data set [5] (48 h) and in data set [6] was above 524 µM throughout. Further, the GI50 in [7] (48 h), in data set [8] and in data set [9] was above 524 µM throughout.
On to `CCOC(=O)c1nn(-c2ccc(Cl)cc2)c(-c2ccc(C)cc2)c1CNC(C)(C)C` [listing 1 of 2 here], for which the GI50 in data set [1] (48 h), in [2] (48 h), in [3] (48 h), in data set [4] (48 h), in [5] (48 h) and in data set [6] was above 542 µM each time. Moreover, the GI50 in data set [7] (48 h), in [8] and in data set [9] was above 542 µM each time.
For `CCOC(=O)c1nn(-c2ccccc2)c(-c2ccc(Cl)cc2)c1CNC(C)(C)C` [listing 1 of 2 here], the GI50 worked out at 73.8 µM in data set [1] (48 h); 72.4 µM in [2] (48 h); 86.7 µM in data set [3] (48 h); 69.2 µM in data set [4] (48 h); 28.6 µM in data set [5] (48 h); 0.134 µM in [6]. Also, the 50% growth inhibitory concentration (GI50) in data set [7] (48 h) was 58.5 µM; in [8], 57.6 µM; in data set [9], 63.5 µM.
Take `CCOC(=O)c1nn(-c2ccccc2)c(-c2ccc(Br)cc2)c1CNC(C)(C)C` [listing 1 of 2 here]: the GI50 came out at 71.9 µM in [1] (48 h); 74.2 µM in [2] (48 h); 83.9 µM in data set [3] (48 h); 118 µM in [4] (48 h); 15.9 µM in data set [5] (48 h); 2.91 µM in data set [6]. Moreover, the GI50 was 21.8 µM in data set [7] (48 h), 22 µM in data set [8] and 61.7 µM in data set [9].
Regarding `CCOC(=O)c1nn(-c2ccccc2)c(-c2ccccc2)c1CNC(C)(C)C` [listing 1 of 2 here], the GI50 came out at 81.5 µM in data set [1] (48 h); 81.7 µM in [2] (48 h); 144 µM in data set [3] (48 h); 76.9 µM in [4] (48 h); 39.9 µM in data set [5] (48 h); 1.01 µM in [6]. Besides, the GI50 in data set [7] (Homo sapiens, HT-29, 48 h) worked out at 69.6 µM; in data set [8] it was 9.62 µM; in [9], 77 µM.
For `CCOC(=O)c1nn(-c2ccccc2)c(-c2ccccc2)c1CNC(C)(C)C` [listing 2 of 2 here], the GI50 was 440 µM in [1] (48 h); 504 µM in data set [2] (48 h); 42.4 µM in [3] (48 h); 195 µM in [4] (48 h); 91.7 µM in [5] (48 h); 195 µM in data set [6]. The GI50 in [7] (48 h) came out at 94.6 µM; in data set [8] it was 113 µM; in data set [9], 13.3 µM.
Regarding `CCOC(=O)c1nn(-c2ccccc2)c(-c2ccc(F)cc2)c1CNC(C)(C)C` [listing 1 of 2 here], the GI50 in [1] (Homo sapiens, U-251, 48 h) is above 632 µM; in [2] (Homo sapiens, MCF7, 48 h) it was 306 µM; in data set [3] (Homo sapiens, 786-0, 48 h), above 632 µM; in data set [4] (48 h), 365 µM; in [5] (Homo sapiens, PC-3, 48 h), 69.3 µM; in data set [6], 0.013 µM. The GI50 in [7] (48 h) stood at 65.4 µM; in data set [8], 75.7 µM; in data set [9], 74.5 µM.
Regarding `CCOC(=O)c1nn(-c2ccc(Cl)cc2)c(-c2ccc(Cl)cc2)c1CNC(C)(C)C` [listing 2 of 2 here], the GI50 in data set [1] (48 h), in [2] (48 h), in [3] (48 h), in data set [4] (48 h), in data set [5] (48 h) and in data set [6] was above 520 µM throughout. In addition, the GI50 in data set [7] (48 h), in data set [8] and in data set [9] was above 520 µM in each case.
On to `CCOC(=O)c1nn(-c2ccc(Cl)cc2)c(-c2ccc(F)cc2)c1CNC(C)(C)C`, for which the GI50 in data set [1] (48 h), in data set [2] (48 h), in data set [3] (48 h), in [4] (48 h), in data set [5] (48 h) and in data set [6] was above 538 µM throughout. Besides, the 50% growth inhibitory concentration (GI50) in data set [7] (48 h), in data set [8] and in data set [9] was above 538 µM in each case.
On to `CCOC(=O)c1nn(-c2ccccc2)c(-c2ccc(OC)cc2)c1CNC(C)(C)C` [listing 1 of 2 here], for which the GI50 in data set [1] (48 h) stood at 527 µM; in [2] (48 h), 244 µM; in data set [3] (48 h) it was 166 µM; in data set [4] (48 h), 148 µM; in data set [5] (48 h), 245 µM; in [6], 17.1 µM. The GI50 was determined as 44.2 µM in data set [7] (48 h), 29.8 µM in data set [8] and 19.2 µM in [9].
`CCOC(=O)c1nn(-c2ccccc2)c(-c2ccc([N+](=O)[O-])cc2)c1CNC(C)(C)C`: the GI50 in data set [1] (48 h) was above 546 µM; in [2] (48 h), 168 µM; in data set [3] (48 h) it was above 546 µM; in data set [4] (48 h) it was 327 µM; in data set [5] (48 h), 128 µM; in data set [6], 288 µM. For the same compound, the GI50 was 35.1 µM in [7] (48 h), 191 µM in [8] and 130 µM in [9].
Take `CCOC(=O)c1nn(-c2ccccc2)c(-c2ccc(Br)cc2)c1CNC(C)(C)C` [listing 2 of 2 here]: the GI50 in [1] (48 h), in data set [2] (48 h), in [3] (48 h), in [4] (48 h), in data set [5] (48 h) and in [6] was above 509 µM throughout. Moreover, the GI50 in [7] (48 h), in data set [8] and in data set [9] was above 509 µM in each case.
In the case of `CCOC(=O)c1nn(-c2ccccc2)c(-c2ccc(C)cc2)c1CNC(C)(C)C` [listing 1 of 2 here], the GI50 in data set [1] (48 h) was found to be 65.4 µM; in [2] (48 h), 78.2 µM; in [3] (48 h) it was 86.1 µM; in [4] (48 h) it was 75.2 µM; in data set [5] (48 h) it was 59.9 µM; in [6] it was 0.054 µM. Further, the GI50 in [7] (48 h) is 68.1 µM; in data set [8], 11.3 µM; in data set [9], 72.1 µM.
Take `CCOC(=O)c1nn(-c2ccccc2)c(-c2ccc(Cl)cc2)c1CNC(C)(C)C` [listing 2 of 2 here]: the GI50 in [1] (48 h), in data set [2] (48 h), in data set [3] (48 h), in data set [4] (48 h), in data set [5] (48 h) and in data set [6] was above 559 µM throughout. Further, the GI50 in [7] (48 h), in data set [8] and in data set [9] was above 559 µM in each case.
As for `CCOC(=O)c1nn(-c2ccccc2)c(-c2ccc(OC)cc2)c1CNC(C)(C)C` [listing 2 of 2 here], the GI50 turned out to be 134 µM in [1] (48 h); 116 µM in [2] (48 h); 537 µM in [3] (48 h); 119 µM in data set [4] (Homo sapiens, NCI-H460, 48 h); 530 µM in data set [5] (48 h); 0.047 µM in data set [6]. The GI50 in data set [7] (Homo sapiens, HT-29, 48 h) stood at 61.3 µM; in [8], 66.6 µM; in data set [9] it was 68.3 µM.
Consider `CCOC(=O)c1nn(-c2ccccc2)c(-c2ccc(F)cc2)c1CNC(C)(C)C` [listing 2 of 2 here], for which the GI50 is above 580 µM in data set [1] (48 h); 517 µM in [2] (48 h); 319 µM in data set [3] (48 h); 179 µM in data set [4] (48 h); 82.1 µM in data set [5] (48 h); 92.1 µM in data set [6]. The GI50 in data set [7] (48 h) amounted to 29.9 µM; in data set [8] it was 161 µM; in data set [9], 32.9 µM.
For the compound `CCOC(=O)c1nn(-c2ccc(Cl)cc2)c(-c2ccccc2)c1CNC(C)(C)C`, the GI50 in data set [1] (48 h), in data set [2] (48 h), in [3] (48 h), in data set [4] (48 h), in [5] (48 h) and in [6] was above 559 µM throughout. Moreover, the GI50 in [7] (48 h), in data set [8] and in [9] was above 559 µM throughout.
Regarding `CCOC(=O)c1nn(-c2ccc(Cl)cc2)c(-c2ccc(Br)cc2)c1CNC(C)(C)C`, the GI50 in [1] (48 h), in data set [2] (48 h), in [3] (48 h), in [4] (48 h), in data set [5] (48 h) and in data set [6] was above 476 µM each time. Besides, the GI50 in [7] (48 h), in data set [8] and in data set [9] was above 476 µM in each case.
Regarding `CCOC(=O)c1nn(-c2ccccc2)c(-c2ccc(C)cc2)c1CNC(C)(C)C` [listing 2 of 2 here], the GI50 in data set [1] (48 h), in data set [2] (48 h), in data set [3] (48 h), in data set [4] (48 h), in [5] (48 h) and in [6] was above 585 µM each time. Further, the GI50 in [7] (48 h), in [8] and in data set [9] was above 585 µM throughout.
Consider `CCOC(=O)c1nn(-c2ccc(Cl)cc2)c(-c2ccc(C)cc2)c1CNC(C)(C)C` [listing 2 of 2 here], for which the GI50 in data set [1] (48 h) was 151 µM; in data set [2] (48 h), 141 µM; in data set [3] (Homo sapiens, 786-0, 48 h), above 588 µM; in data set [4] (Homo sapiens, NCI-H460, 48 h), 277 µM; in data set [5] (48 h) it was 249 µM; in [6], 49.2 µM. Besides, the GI50 in [7] (48 h) was 106 µM; in [8], 106 µM; in data set [9], 144 µM.
